What was measured:
Cholinesterase [1] = molecular target: T1, Cholinesterase (Homo sapiens, UniProt P06276); experiment: Pseudo-irreversible inhibition of human serum BuChE assessed as residual activity at 0.1 times IC50 using acetylcholine iodide as substrate measured 240 mins post dilution by Ellman's method relative to control
Mus musculus [2] = experiment: Improvement in brain cholinergic activity in scopolamine-induced mouse model of amnesia assessed as change in ChAT vitality at 6 mg/kg (reference value: 28.8 U/g); format: functional
Mus musculus [3] = experiment: Improvement in cognitive impairment in scopolamine-induced mouse model of amnesia assessed as change in spontaneous alteration at 6 mg/kg by Y-maze test (reference value: 40.8%); format: functional
Cholinesterase [4] = molecular target: T1, Cholinesterase; experiment: Inhibition of human serum BuChE assessed as residual activity at 0.1 times IC50 using acetylcholine iodide as substrate measured after dilution by Ellman's method relative to control
Cholinesterase [5] = molecular target: T1, Cholinesterase; experiment: Inhibition of human serum BuChE assessed as residual activity at IC50 using acetylcholine iodide as substrate measured by Ellman's method relative to control
[6] = Effect on spontaneous alteration behavior in mouse assessed as change in total arm entry at 6 mg/kg by Y-maze test; format: ADME, organism-based; conditions: in vivo
[7] = Drug uptake in iv dosed mouse hippocampus measured after 60 mins in presence of rivastigmine by PET imaging analysis; format: ADME, organism-based; conditions: in vivo, 1 h
[8] = Drug uptake in iv dosed mouse brainstem measured after 60 mins in presence of (E)-4-(3-(3,4-dihydroisoquinolin-2(1H)-yl)-3-oxoprop-1-en-1-yl)-2-methoxyphenyl ethyl(methyl)carbamate by PET imaging analysis; format: ADME, organism-based; conditions: in vivo
[9] = Drug uptake in iv dosed mouse brainstem measured after 60 mins in presence of rivastigmine by PET imaging analysis; format: ADME, organism-based; conditions: in vivo, 1 h
[10] = Drug uptake in iv dosed mouse brain measured at 2 mins by PET imaging analysis; format: ADME, organism-based; conditions: in vivo
[11] = Drug uptake in iv dosed mouse brainstem measured after 60 mins by PET imaging analysis; format: ADME, organism-based; conditions: in vivo, 1 h
[12] = Drug uptake in iv dosed mouse brain measured up to 60 mins in presence of rivastigmine by PET imaging analysis; format: ADME, organism-based; conditions: in vivo, 1 h
[13] = Drug uptake in iv dosed mouse cerebellum measured after 60 mins in presence of (E)-4-(3-(3,4-dihydroisoquinolin-2(1H)-yl)-3-oxoprop-1-en-1-yl)-2-methoxyphenyl ethyl(methyl)carbamate by PET imaging analysis; format: ADME, organism-based; conditions: in vivo
[14] = Drug uptake in iv dosed mouse striatum measured after 60 mins in presence of rivastigmine by PET imaging analysis; format: ADME, organism-based; conditions: in vivo, 1 h
[15] = Drug uptake in iv dosed mouse spleen measured after 60 mins by PET imaging analysis; format: ADME, organism-based; conditions: in vivo, 1 h
[16] = Drug uptake in iv dosed mouse central gray substance of midbrain measured after 60 mins in presence of (E)-4-(3-(3,4-dihydroisoquinolin-2(1H)-yl)-3-oxoprop-1-en-1-yl)-2-methoxyphenyl ethyl(methyl)carbamate by PET imaging analysis; format: ADME, organism-based; conditions: in vivo
[17] = Drug uptake in iv dosed mouse hypothalamus measured after 60 mins by PET imaging analysis; format: ADME, organism-based; conditions: in vivo, 1 h
[18] = Drug uptake in iv dosed mouse cerebellum measured after 60 mins in presence of rivastigmine by PET imaging analysis; format: ADME, organism-based; conditions: in vivo, 1 h
[19] = Drug uptake in iv dosed mouse liver measured after 30 mins by PET imaging analysis; format: ADME, organism-based; conditions: in vivo, 0.5 h
[20] = Drug uptake in iv dosed mouse thalamus measured after 60 mins in presence of (E)-4-(3-(3,4-dihydroisoquinolin-2(1H)-yl)-3-oxoprop-1-en-1-yl)-2-methoxyphenyl ethyl(methyl)carbamate by PET imaging analysis; format: ADME, organism-based; conditions: in vivo
[21] = Drug uptake in iv dosed mouse central gray substance of midbrain measured after 60 mins by PET imaging analysis; format: ADME, organism-based; conditions: in vivo, 1 h
[22] = Drug uptake in iv dosed mouse cortex measured after 60 mins in presence of rivastigmine by PET imaging analysis; format: ADME, organism-based; conditions: in vivo, 1 h
[23] = Drug uptake in iv dosed mouse thalamus measured after 60 mins in presence of rivastigmine by PET imaging analysis; format: ADME, organism-based; conditions: in vivo, 1 h
[24] = Drug uptake in iv dosed mouse cerebellum measured after 60 mins by PET imaging analysis; format: ADME, organism-based; conditions: in vivo, 1 h
[25] = Drug uptake in iv dosed mouse thalamus measured after 60 mins by PET imaging analysis; format: ADME, organism-based; conditions: in vivo, 1 h
[26] = Drug uptake in iv dosed mouse lung measured after 5 mins by PET imaging analysis; format: ADME, organism-based; conditions: in vivo
[27] = Drug uptake in iv dosed mouse hippocampus measured after 60 mins by PET imaging analysis; format: ADME, organism-based; conditions: in vivo, 1 h
[28] = Drug uptake in iv dosed mouse striatum measured after 60 mins by PET imaging analysis; format: ADME, organism-based; conditions: in vivo, 1 h
[29] = Drug uptake in iv dosed mouse striatum measured after 60 mins in presence of (E)-4-(3-(3,4-dihydroisoquinolin-2(1H)-yl)-3-oxoprop-1-en-1-yl)-2-methoxyphenyl ethyl(methyl)carbamate by PET imaging analysis; format: ADME, organism-based; conditions: in vivo
[30] = Drug uptake in iv dosed mouse brain measured up to 60 mins in presence of (E)-4-(3-(3,4-dihydroisoquinolin-2(1H)-yl)-3-oxoprop-1-en-1-yl)-2-methoxyphenyl ethyl(methyl)carbamate by PET imaging analysis; format: ADME, organism-based; conditions: in vivo
[31] = Drug uptake in iv dosed mouse hypothalamus measured after 60 mins in presence of rivastigmine by PET imaging analysis; format: ADME, organism-based; conditions: in vivo, 1 h
[32] = Drug uptake in iv dosed mouse amygdala measured after 60 mins in presence of rivastigmine by PET imaging analysis; format: ADME, organism-based; conditions: in vivo, 1 h
[33] = Drug uptake in iv dosed mouse cortex measured after 60 mins in presence of (E)-4-(3-(3,4-dihydroisoquinolin-2(1H)-yl)-3-oxoprop-1-en-1-yl)-2-methoxyphenyl ethyl(methyl)carbamate by PET imaging analysis; format: ADME, organism-based; conditions: in vivo
[34] = Drug uptake in iv dosed mouse hypothalamus measured after 60 mins in presence of (E)-4-(3-(3,4-dihydroisoquinolin-2(1H)-yl)-3-oxoprop-1-en-1-yl)-2-methoxyphenyl ethyl(methyl)carbamate by PET imaging analysis; format: ADME, organism-based; conditions: in vivo
[35] = Drug uptake in iv dosed mouse amygdala measured after 60 mins by PET imaging analysis; format: ADME, organism-based; conditions: in vivo, 1 h
[36] = Drug uptake in iv dosed mouse brain measured after 60 mins by PET imaging analysis; format: ADME, organism-based; conditions: in vivo, 1 h
[37] = Drug uptake in iv dosed mouse central gray substance of midbrain measured after 60 mins in presence of rivastigmine by PET imaging analysis; format: ADME, organism-based; conditions: in vivo, 1 h
[38] = Drug uptake in iv dosed mouse cortex measured after 60 mins by PET imaging analysis; format: ADME, organism-based; conditions: in vivo, 1 h
[39] = Drug uptake in iv dosed mouse heart measured after 5 mins by PET imaging analysis; format: ADME, organism-based; conditions: in vivo
[40] = Drug uptake in iv dosed mouse amygdala measured after 60 mins in presence of (E)-4-(3-(3,4-dihydroisoquinolin-2(1H)-yl)-3-oxoprop-1-en-1-yl)-2-methoxyphenyl ethyl(methyl)carbamate by PET imaging analysis; format: ADME, organism-based; conditions: in vivo
[41] = Drug uptake in iv dosed mouse brain measured after 5 mins by PET imaging analysis; format: ADME, organism-based; conditions: in vivo
[42] = Drug uptake in iv dosed mouse hippocampus measured after 60 mins in presence of (E)-4-(3-(3,4-dihydroisoquinolin-2(1H)-yl)-3-oxoprop-1-en-1-yl)-2-methoxyphenyl ethyl(methyl)carbamate by PET imaging analysis; format: ADME, organism-based; conditions: in vivo

T1 sequence (P06276 whole entry): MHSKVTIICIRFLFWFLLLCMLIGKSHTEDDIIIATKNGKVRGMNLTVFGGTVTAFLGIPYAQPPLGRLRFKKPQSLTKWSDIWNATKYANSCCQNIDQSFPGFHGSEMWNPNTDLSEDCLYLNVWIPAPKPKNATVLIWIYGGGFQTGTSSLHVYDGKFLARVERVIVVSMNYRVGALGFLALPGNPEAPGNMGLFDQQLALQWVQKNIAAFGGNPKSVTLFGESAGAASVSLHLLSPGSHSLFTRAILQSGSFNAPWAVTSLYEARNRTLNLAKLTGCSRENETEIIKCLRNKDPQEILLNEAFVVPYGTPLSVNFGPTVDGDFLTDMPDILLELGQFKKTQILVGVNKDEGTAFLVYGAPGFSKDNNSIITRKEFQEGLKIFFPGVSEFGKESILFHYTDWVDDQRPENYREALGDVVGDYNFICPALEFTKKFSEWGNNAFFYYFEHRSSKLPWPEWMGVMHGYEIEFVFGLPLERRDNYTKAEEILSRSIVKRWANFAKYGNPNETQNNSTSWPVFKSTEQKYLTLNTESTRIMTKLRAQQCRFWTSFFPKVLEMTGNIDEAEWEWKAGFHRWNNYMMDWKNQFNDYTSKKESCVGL

SMILES: CCN(C)C(=O)Oc1cccc([C@H](C)N(C)C)c1 [RIVASTIGMINE]
- Activity (Cholinesterase [1]): 73.3%
- Activity (Mus musculus [2]): 55.3 U/g
- Activity (Mus musculus [3]): 60.2%
- Activity (Cholinesterase [4]): 53.2%
- Activity (Cholinesterase [5]): 48.3%
- Activity [6]: Non-Toxic

SMILES: CCN(C)C(=O)Oc1ccc(/C=C/C(=O)N2CCc3ccccc3C2)cc1O[11CH3]
- Drug uptake [7]: Not Active
- Drug uptake [8]: Not Active
- Drug uptake [9]: Not Active
- Drug uptake [10]: 8.76 %ID/cc
- Drug uptake [11]: Active
- Drug uptake [12]: Not Active
- Drug uptake [13]: Not Active
- Drug uptake [14]: Not Active
- Drug uptake [15]: 11.49 %ID/cc
- Drug uptake [16]: Not Active
- Drug uptake [17]: Active
- Drug uptake [18]: Not Active
- Drug uptake [19]: 14.46 %ID/cc
- Drug uptake [20]: Not Active
- Drug uptake [21]: Active
- Drug uptake [22]: Not Active
- Drug uptake [23]: Not Active
- Drug uptake [24]: Active
- Drug uptake [25]: Active
- Drug uptake [26]: 4.68 %ID/cc
- Drug uptake [27]: -9 %ID/cc
- Drug uptake [28]: -9 %ID/cc
- Drug uptake [29]: Not Active
- Drug uptake [30]: Not Active
- Drug uptake [31]: Not Active
- Drug uptake [32]: Not Active
- Drug uptake [33]: Not Active
- Drug uptake [34]: Not Active
- Drug uptake [35]: Active
- Drug uptake [36]: Active
- Drug uptake [37]: Not Active
- Drug uptake [38]: Active
- Drug uptake [39]: 11.8 %ID/cc
- Drug uptake [40]: Not Active
- Drug uptake [41]: 6.21 %ID/cc
- Drug uptake [42]: Not Active
